Columns and labels:
Assay type in all cases: cell-based
[1] = system: LL29 cells (primary human fibroblasts derived from IPF patients), α-smooth muscle actin; assay: Inhibition of the fibrotic process: αSMA staining in TGF-β1 treated primary human fibroblasts from IPF patients (LL29 cells); conditions: Fibroblast; for EC50: 96 h, LL29 cells, TGF-β1 20 ng/mL, 4 days, % αSMA positive cells; for inhibition at 10 µM: read-out: percent inhibition at 10 μM
Summary of the method: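 Read-out after 4-day incubation: αSMA staining with 1 μM SYTOX green nuclear counterstain (30 min, room temperature). Cells were LL29 primary fibroblasts from IPF patients, in 1% FBS F12, exposed to TGF-β1 with test compound, referenced to TGF-β1/DMSO control wells.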

[2] = system: Wnt activity (Sp5-Luc reporter, TCF/LEF binding sites) in SW480 colon carcinoma cells; assay: Wnt activity screening assay: Sp5-Luc reporter gene assay in SW480 cells; conditions: Homo sapiens; for EC50: Sp5-Luc reporter, SW480 cells, overnight incubation
Summary of the method: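 SW480 cells stably carrying a luciferase reporter under a human Sp5 promoter with eight TCF/LEF sites, plated at 4,000 cells/well in 1% FBS medium. Luminescence read with BrightGlo, normalized to DMSO-treated cells; EC50 from four-parameter variable-slope nonlinear regression.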

IL-6 in THP-1 cells = assay: IL-6 inhibition in LPS-stimulated THP-1 human monocyte cells (HTRF); conditions: for EC50: IL-6 inhibition, LPS-stimulated THP-1 cells, HTRF, 10-point dose-response starting from 10 μM; for inhibition at 10 µM: THP-1, read-out: percentage in parentheses beside EC50 >10
Summary of the method: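 THP-1 cells were serum-reduced (1% FBS, 24 h), plated at 5000 cells/well with compound for 2 h at 37 °C, then stimulated 22 h with 500 ng/mL LPS. Secreted IL-6 was quantified by HTRF (665/620 nm ratio). Signals were normalised to DMSO, and EC50 was fitted by four-parameter nonlinear regression.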

[3] = system: primary human mesenchymal stem cells (hMSCs); assay: Induction of chondrogenesis in primary human mesenchymal stem cells (chondrogenic nodules, Rhodamine B / Nile Red); conditions: 6 days; for Emax: relative to TGF-β3 (10 ng/mL) positive control, read-out: Max. Activity as % TGF-β3 activity; for EC50: concentration required to induce 50% levels of chondrogenesis vs TGF-β3, read-out: Conc (nM) of 50% TGF-β3 activity
Summary of the method: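 Primary hMSCs at passage 3–6 were fixed with 4% formaldehyde and stained with 2 μg/mL Rhodamine B plus 20 μM Nile Red to image chondrogenic nodules. Nodule counts normalized to the mean of 3 DMSO wells (fold change), averaged over 3 replicate wells per concentration. TGF-β3 served as positive control; EC50, maximum activity and the dose giving maximum are reported.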

SW480 colon cancer cells = assay: Cell viability assay (CellTiter-Blue) in SW480 colon cancer cells; conditions: Homo sapiens; for EC50: 96 h, SW480 cell viability, four days, CellTiter-Blue; for inhibition at 10 µM: SW480, read-out: percent inhibition at 10 μM
Summary of the method: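 Fluorescence from resazurin reduced to resorufin by metabolically active cells was the read-out, taken after ~3 h with CellTiter-Blue.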

SMILES	EC50 [1]	EC50 [2]	EC50 (IL-6 in THP-1 cells)	Emax [3]	EC50 (SW480 colon cancer cells)	EC50 [3]	inhibition at 10 µM [1]	inhibition at 10 µM ([2]; SW480, read-out: percent inhibition at 10 μM)	inhibition at 10 µM (SW480 colon cancer cells)	inhibition at 10 µM (IL-6 in THP-1 cells)
O=C(Nc1cncc(-c2cnc3[nH]nc(-c4cc5cnccc5[nH]4)c3c2)c1)C1CCCCC1 [Compound 275, N-(5-(3-(1H-Pyrrolo[3,2-c]pyridin-2-yl)-1H-pyrazolo[3,4-b]pyridin-5-yl)pyridin-3-yl)cyclohexanecarboxamide]	1.38 µM	1.4 µM	0.447 µM	9%	1.52 µM	–	–	–	–	–
O=C(Nc1cncc(-c2cnc3[nH]nc(-c4cc5c(-c6cccs6)nccc5[nH]4)c3c2)c1)C1CCC1 [Compound 357, N-(5-(3-(4-(Thiophen-2-yl)-1H-pyrrolo[3,2-c]pyridin-2-yl)-1H-pyrazolo[3,4-b]pyridin-5-yl)pyridin-3-yl)cyclobutanecarboxamide]	0.609 µM	0.473 µM	0.179 µM	82%	0.489 µM	100 nM	–	–	–	–
CC(C)CC(=O)Nc1cncc(-c2cnc3[nH]nc(-c4cc5c(-c6cc(F)cc(CNS(C)(=O)=O)c6)nccc5[nH]4)c3c2)c1 [Compound 478, N-(5-(3-(4-(3-Fluoro-5-(methylsulfonamidomethyl)phenyl)-1H-pyrrolo[3,2-c]pyridin-2-yl)-1H-pyrazolo[3,4-b]pyridin-5-yl)pyridin-3-yl)-3-methylbutanamide]	> 10 µM	1.96 µM	0.537 µM	52%	4.09 µM	300 nM	0%	–	–	–
Cc1ccncc1-c1cnc2[nH]nc(-c3cc4c(-c5cc(F)cc(CNS(C)(=O)=O)c5)nccc4[nH]3)c2c1 [Compound 481, N-(3-Fluoro-5-(2-(5-(4-methylpyridin-3-yl)-1H-pyrazolo[3,4-b]pyridin-3-yl)-1H-pyrrolo[3,2-c]pyridin-4-yl)benzyl)methanesulfonamide]	0.6 µM	0.662 µM	0.307 µM	173%	1.5 µM	900 nM	–	–	–	–
CCNCc1cncc(-c2cnc3[nH]nc(-c4cc5c(-c6cc(F)cc(CNS(C)(=O)=O)c6)nccc5[nH]4)c3c2)c1 [Compound 482, N-(3-(2-(5-(5-((Ethylamino)methyl)pyridin-3-yl)-1H-pyrazolo[3,4-b]pyridin-3-yl)-1H-pyrrolo[3,2-c]pyridin-4-yl)-5-fluorobenzyl)methanesulfonamide]	> 10 µM	> 10 µM	2.24 µM	61%	> 10 µM	300 nM	0%	8.8%	16.6%	–
CC(C)Nc1cncc(-c2cnc3[nH]nc(-c4cc5c(-c6cc(F)cc(CNS(C)(=O)=O)c6)nccc5[nH]4)c3c2)c1 [Compound 488, N-(3-Fluoro-5-(2-(5-(5-(isopropylamino)pyridin-3-yl)-1H-pyrazolo[3,4-b]pyridin-3-yl)-1H-pyrrolo[3,2-c]pyridin-4-yl)benzyl)methanesulfonamide]	0.86 µM	0.486 µM	> 10 µM	66%	1.34 µM	100 nM	–	–	–	54.6%
CS(=O)(=O)NCc1cc(F)cc(-c2nccc3[nH]c(-c4n[nH]c5ncc(-c6cncc(NC(=O)C7CCC7)c6)cc45)cc23)c1 [Compound 497, N-(5-(3-(4-(3-Fluoro-5-(methylsulfonamidomethyl)phenyl)-1H-pyrrolo[3,2-c]pyridin-2-yl)-1H-pyrazolo[3,4-b]pyridin-5-yl)pyridin-3-yl)cyclobutanecarboxamide]	> 10 µM	3.64 µM	0.124 µM	52%	> 10 µM	300 nM	0%	–	48%	–
CS(=O)(=O)NCc1cc(F)cc(-c2nccc3[nH]c(-c4n[nH]c5ncc(-c6cncc(NC(=O)C7CCCCC7)c6)cc45)cc23)c1 [Compound 499, N-(5-(3-(4-(3-Fluoro-5-(methylsulfonamidomethyl)phenyl)-1H-pyrrolo[3,2-c]pyridin-2-yl)-1H-pyrazolo[3,4-b]pyridin-5-yl)pyridin-3-yl)cyclohexane carboxamide]	> 10 µM	3.63 µM	3.75 µM	120%	> 10 µM	–	23.6%	–	35.5%	–
Fc1ccccc1-c1nccc2[nH]c(-c3n[nH]c4ncc(-c5cn[nH]c5)cc34)cc12 [Compound 539, 3-(4-(2-Fluorophenyl)-1H-pyrrolo[3,2-c]pyridin-2-yl)-5-(1H-pyrazol-4-yl)-1H-pyrazolo[3,4-b]pyridine]	0.076 µM	0.056 µM	0.101 µM	49%	0.261 µM	–	–	–	–	–
Cn1cc(-c2cnc3[nH]nc(-c4cc5c(-c6cccnc6)nccc5[nH]4)c3c2)cn1 [Compound 556, 5-(1-Methyl-1H-pyrazol-4-yl)-3-(4-(pyridin-3-yl)-1H-pyrrolo[3,2-c]pyridin-2-yl)-1H-pyrazolo[3,4-b]pyridine]	0.098 µM	0.318 µM	0.355 µM	33%	0.975 µM	–	–	–	–	–
CS(=O)(=O)NCc1cc(F)cc(-c2nccc3[nH]c(-c4n[nH]c5ncc(-c6cncc(OCc7ccccc7)c6)cc45)cc23)c1 [Compound 774, N-(3-(2-(5-(5-(Benzyloxy)pyridin-3-yl)-1H-pyrazolo[3,4-b]pyridin-3-yl)-1H-pyrrolo[3,2-c]pyridin-4-yl)-5-fluorobenzyl)methanesulfonamide]	2.16 µM	6.86 µM	> 10 µM	21%	> 10 µM	–	–	–	30.2%	48.3%
